Results published in ChEMBL document CHEMBL4680375 (ACS Med Chem Lett, 2021).
Calls of active or inactive are those of the source. The rule behind the calls is not given here.

Tests used:
[1] = target: T1, NAD-dependent protein deacetylase sirtuin-1 (Homo sapiens, UniProt Q96EB6); test: Inhibition of N-terminal hexa-His-tagged human SIRT1 (156 to 664 residues) expressed in Escherichia coli BL21 (DE3) assessed as deacetylation of Abz-labeled acetyl peptide using Abz-GVLKacAYNO2GY-NH2 peptide as substrate incubated for 30 mins in presence of NAD+ by fluorescence microplate reader assay
T1 sequence (Q96EB6 whole entry): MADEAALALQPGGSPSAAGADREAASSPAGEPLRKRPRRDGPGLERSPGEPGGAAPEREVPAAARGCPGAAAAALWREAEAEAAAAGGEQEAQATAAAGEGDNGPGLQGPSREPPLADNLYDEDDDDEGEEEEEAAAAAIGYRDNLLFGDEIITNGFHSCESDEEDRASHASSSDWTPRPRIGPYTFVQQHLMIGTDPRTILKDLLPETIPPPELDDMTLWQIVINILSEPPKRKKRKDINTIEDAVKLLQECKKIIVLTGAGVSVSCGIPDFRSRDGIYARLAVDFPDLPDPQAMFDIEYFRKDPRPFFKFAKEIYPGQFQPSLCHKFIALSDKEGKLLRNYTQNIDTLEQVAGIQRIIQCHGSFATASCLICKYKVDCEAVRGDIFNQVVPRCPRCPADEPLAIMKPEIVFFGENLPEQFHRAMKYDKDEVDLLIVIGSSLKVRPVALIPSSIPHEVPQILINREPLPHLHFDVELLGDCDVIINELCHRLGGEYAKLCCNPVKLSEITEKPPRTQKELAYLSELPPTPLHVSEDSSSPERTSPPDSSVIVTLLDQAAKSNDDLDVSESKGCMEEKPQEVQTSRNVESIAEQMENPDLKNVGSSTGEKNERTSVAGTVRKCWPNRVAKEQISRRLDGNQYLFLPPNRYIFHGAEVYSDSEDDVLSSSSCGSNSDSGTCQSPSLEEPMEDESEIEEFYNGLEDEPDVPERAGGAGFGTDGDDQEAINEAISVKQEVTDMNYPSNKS

[2] = target: T2, NAD-dependent protein deacetylase sirtuin-2 (Homo sapiens, UniProt Q8IXJ6); test: Inhibition of GST-fusion tagged human SIRT2 (34 to 356 residues) expressed in Escherichia coli BL21 (DE3) using Abz-GVLKacAYNO2GY-NH2 peptide as substrate incubated for 30 mins in presence of NAD+ by fluorescence microplate reader assay
T2 sequence (Q8IXJ6 whole entry): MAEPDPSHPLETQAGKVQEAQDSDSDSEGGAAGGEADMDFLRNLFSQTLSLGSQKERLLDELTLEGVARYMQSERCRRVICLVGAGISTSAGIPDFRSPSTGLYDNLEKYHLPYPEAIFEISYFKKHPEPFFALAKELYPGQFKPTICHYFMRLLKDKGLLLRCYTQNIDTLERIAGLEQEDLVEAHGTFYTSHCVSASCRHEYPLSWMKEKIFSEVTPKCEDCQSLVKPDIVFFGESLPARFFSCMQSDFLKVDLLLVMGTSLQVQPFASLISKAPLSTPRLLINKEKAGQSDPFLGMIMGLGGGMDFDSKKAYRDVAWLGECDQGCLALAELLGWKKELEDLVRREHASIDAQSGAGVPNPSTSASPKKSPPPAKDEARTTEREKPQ

[3] = target: NAD-dependent protein deacylase sirtuin-5, mitochondrial (Homo sapiens, UniProt Q9NXA8); test: Inhibition of N-terminal 8His-tagged human SIRT5 (34 to 302 residues) expressed in Escherichia coli Rosetta2 (DE3) using Abz-GVLKacAYNO2GY-NH2 peptide as substrate incubated for 30 mins in presence of NAD+ by fluorescence microplate reader assay
Sequence of NAD-dependent protein deacylase sirtuin-5, mitochondrial (Q9NXA8 whole entry, the tested form may be a part): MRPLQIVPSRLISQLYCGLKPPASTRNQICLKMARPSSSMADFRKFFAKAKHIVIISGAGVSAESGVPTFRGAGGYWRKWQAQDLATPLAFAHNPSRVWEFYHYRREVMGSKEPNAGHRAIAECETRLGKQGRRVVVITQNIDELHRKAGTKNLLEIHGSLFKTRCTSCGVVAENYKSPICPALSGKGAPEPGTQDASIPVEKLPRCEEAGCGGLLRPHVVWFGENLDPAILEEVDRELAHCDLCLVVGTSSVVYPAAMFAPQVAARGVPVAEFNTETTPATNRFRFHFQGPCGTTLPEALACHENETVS

[4] = target: NAD-dependent protein deacylase sirtuin-6 (Homo sapiens, UniProt Q8N6T7); test: Inhibition of recombinant N-terminal hexa-His-tagged SIRT6 (3 to 318 residues) (unknown origin) expressed in Escherichia coli BL21 (DE3) using RHKKac-AMC as substrate incubated for 2 hrs in presence of NAD+ by fluorescence microplate reader assay
Sequence of NAD-dependent protein deacylase sirtuin-6 (Q8N6T7 whole entry, the tested form may be a part): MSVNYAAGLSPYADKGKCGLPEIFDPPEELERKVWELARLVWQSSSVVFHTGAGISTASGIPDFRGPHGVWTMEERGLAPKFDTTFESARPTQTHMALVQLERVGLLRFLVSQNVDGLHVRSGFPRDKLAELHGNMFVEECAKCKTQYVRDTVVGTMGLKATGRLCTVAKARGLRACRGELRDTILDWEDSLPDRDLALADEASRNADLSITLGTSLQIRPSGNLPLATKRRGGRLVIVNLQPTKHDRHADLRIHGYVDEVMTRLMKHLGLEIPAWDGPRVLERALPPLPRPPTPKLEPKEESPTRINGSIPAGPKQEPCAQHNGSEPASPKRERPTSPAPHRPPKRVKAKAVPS

[5] = target: T3, NAD-dependent protein deacetylase sirtuin-1 (Homo sapiens) (UniProt Q96EB6); test: Inhibition of SIRT1 in human SH-SY5Y cells assessed as increase in acetylated p53 level at 10 uM measured after 72 hrs in presence of ATRA by Western blot analysis; format: cell-based
T3 sequence (whole entry): T1 sequence (Q96EB6 whole entry)

[6] = target: T3, NAD-dependent protein deacetylase sirtuin-1 (Homo sapiens); test: Inhibition of SIRT1 in human SH-SY5Y cells assessed as increase in acetylated p53 level at 10 uM by Western blot analysis; format: cell-based
[7] = target: T3, NAD-dependent protein deacetylase sirtuin-1 (Homo sapiens); test: Inhibition of SIRT1 in human SH-SY5Y cells assessed as increase in ratio of acetylated p53 to p53 level by Western blot analysis; format: cell-based; settings: dose 0.1-50 µM

| Compound | IC50 ([1]; read-out: IC50) [µM] | other results |
| --- | --- | --- |
| Nc1c(Br)cc(C=C2C(=O)OC(c3ccccc3)OC2=O)cc1Br (stereo not given) | 7.63 |  |
| O=C1OC(c2ccccc2)OC(=O)C1=Cc1ccc(O)c(F)c1 (stereo not given) | 4.65 |  |
| CCOc1cc(C=C2C(=O)OC(C)(c3ccccc3)OC2=O)ccc1O (stereo not given) | 7.92 |  |
| COc1ccccc1C=C1C(=O)OC(C)(c2ccccc2)OC1=O (stereo not given) | 14.4 |  |
| O=C1OC(c2ccccc2)OC(=O)C1=Cc1ccc(Cl)cc1 (stereo not given) | 18.8 |  |
| CCOc1cc(C=C2C(=O)OC(c3ccccc3)OC2=O)cc([N+](=O)[O-])c1O (stereo not given) | 3.69 |  |
| COc1cc(C=C2C(=O)OC(c3ccccc3)OC2=O)cc(I)c1O (stereo not given) | 0.89 | IC50 [2]: 49.4 µM; IC50 ([3]; read-out: IC50): 22.4 µM; IC50 [4]: Not Active; increase in acetylated p53 level (qualitative) [5]: Active |
| O=C1OC(c2ccccc2)OC(=O)C1=Cc1cc(F)c(O)c(F)c1 (stereo not given) | 4.54 |  |
| COc1cc(C=C2C(=O)OC(c3ccccc3)OC2=O)ccc1OCc1ccc2c(c1)OCO2 (stereo not given) | 8.14 |  |
| CC1(c2ccccc2)OC(=O)C(=Cc2ccccc2)C(=O)O1 (stereo not given) |  | IC50 [1]: Not Active |
| COc1cc(C=C2C(=O)OC(c3ccccc3)OC2=O)cc(Cl)c1O (stereo not given) | 1.9 | increase in acetylated p53 level (qualitative) [5]: Active |
| COc1cc(C=C2C(=O)OC(C)(c3ccccc3)OC2=O)ccc1OCc1cccc(C(=O)O)c1 (stereo not given) | 12.9 |  |
| COc1cc(C=C2C(=O)OC(c3ccccc3)OC2=O)cc(Cc2ccccc2)c1O (stereo not given) | 2.47 |  |
| COc1cc(C=C2C(=O)OC(c3ccccc3)OC2=O)c(Br)cc1O (stereo not given) | 3.52 |  |
| O=C1OC(c2ccccc2)OC(=O)C1=Cc1ccc(O)c(Br)c1 (stereo not given) | 1.4 |  |
| O=C1OC(c2ccccc2)OC(=O)C1=Cc1ccc(O)c(OCC2CC2)c1 (stereo not given) | 2.48 |  |
| CC1=C(/C=C/C(C)=C/C=C/C(C)=C/C(=O)O)C(C)(C)CCC1 |  | inhibition [6]: inactive |
| Cc1cc(C=C2C(=O)OC(c3ccccc3)OC2=O)c(C)cc1O (stereo not given) | 4.4 |  |
| O=C1OC(c2ccccc2)OC(=O)C1=Cc1cc(I)c(O)c(I)c1 (stereo not given) | 0.46 | IC50 [2]: 52.2 µM; IC50 ([3]; read-out: IC50): 4.98 µM; IC50 [4]: Not Active; increase in acetylated p53 level (qualitative) [5]: Active; inhibition [7]: Dose-dependent effect |
| O=C1OC(c2ccccc2)OC(=O)C1=Cc1ccc(O)c(OCc2ccccc2)c1 (stereo not given) | 2.52 |  |
| Cc1cc(C=C2C(=O)OC(c3ccccc3)OC2=O)ccc1O (stereo not given) | 5.41 |  |
| COc1ccc(C=C2C(=O)OC(c3ccccc3)OC2=O)c(OC)c1OC (stereo not given) | 15.8 |  |
| O=C1OC(c2ccccc2)OC(=O)C1=Cc1cc(I)c(O)c(OCc2ccccc2)c1 (stereo not given) | 0.61 |  |

| Compound | IC50 ([1]; read-out: IC50) [µM] | other results |
| --- | --- | --- |
| COc1cc(C=C2C(=O)OC(c3ccccc3)OC2=O)cc(C(=O)OCc2ccccc2)c1O (stereo not given) | 2.66 |  |
| COc1cc(C=C2C(=O)OC(c3ccccc3)OC2=O)cc(OC)c1O (stereo not given) | 11.9 |  |
| CCOc1cc(C=C2C(=O)OC(c3ccccc3)OC2=O)cc(Br)c1O (stereo not given) | 1.14 |  |
| O=C1OC(c2ccccc2)OC(=O)C1=Cc1ccc(OCc2cccc(C(=O)O)c2)cc1 (stereo not given) | 10 |  |
| CCc1cc(C=C2C(=O)OC(c3ccccc3)OC2=O)cc(CC)c1O (stereo not given) | 3.1 |  |
| CC(C)(C)c1cc(C=C2C(=O)OC(c3ccccc3)OC2=O)cc(C(C)(C)C)c1O (stereo not given) | 19 |  |
| O=C1OC(c2ccccc2)OC(=O)C1=Cc1ccc(O)c(Cl)c1 (stereo not given) | 3.84 |  |
| O=C1OC(c2ccccc2)OC(=O)C1=Cc1cc(Cl)c(O)c(Cl)c1 (stereo not given) | 1.2 | IC50 [2]: 56.4 µM; IC50 ([3]; read-out: IC50): 37.4 µM; IC50 [4]: Not Active; increase in acetylated p53 level (qualitative) [5]: Active |
| O=C1OC(c2ccccc2)OC(=O)C1=Cc1cc(Br)c(O)c(Br)c1 (stereo not given) | 0.7 |  |
| CCOc1cc(C=C2C(=O)OC(c3ccccc3)OC2=O)ccc1O (stereo not given) | 5.49 |  |
| O=C1OC(c2ccccc2)OC(=O)C1=Cc1ccc(O)cc1Br (stereo not given) | 3.56 |  |
| O=C1OC(c2ccccc2)OC(=O)C1=Cc1ccc(O)cc1F (stereo not given) | 3.76 |  |
| O=C1OC(c2ccccc2)OC(=O)C1=Cc1cc(Br)c(O)c(OCc2ccccc2)c1 (stereo not given) | 0.68 |  |
| COc1cc(C=C2C(=O)OC(c3ccccc3)OC2=O)cc([N+](=O)[O-])c1O (stereo not given) | 3.49 |  |
| O=C1OC(c2ccccc2)OC(=O)C1=Cc1ccc(O)cc1 (stereo not given) | 6.33 |  |
| NC(=O)[C@@H]1CCCc2c1[nH]c1ccc(Cl)cc21 |  | IC50 [3]: Not Active; IC50 [4]: Not Active |
| Cc1cc(C=C2C(=O)OC(c3ccccc3)OC2=O)cc(C)c1O (stereo not given) | 3.07 |  |
| CC(C)Oc1cccc(C=C2C(=O)OC(c3ccccc3)OC2=O)c1 (stereo not given) | 14 |  |
| COc1cc(OC)c(C=C2C(=O)OC(C)(c3ccccc3)OC2=O)cc1Br (stereo not given) | 13.6 |  |
| COc1ccc(OC)c(C=C2C(=O)OC(C)(c3ccccc3)OC2=O)c1 (stereo not given) | 16.8 |  |
| Nc1c(I)cc(C=C2C(=O)OC(c3ccccc3)OC2=O)cc1I (stereo not given) | 10.2 |  |
| CC1(c2ccccc2)OC(=O)C(=Cc2ccc(O)cc2)C(=O)O1 (stereo not given) | 7.06 |  |
